Experimental data taken from patent publication US11752091B2, “Composition for strengthening skin barrier, moisturizing skin or anti-aging” (COSMAX, INC., priority 2020, dated 2023).

Experiments:
Conditions in all cases: 37° C., 48 hours (examined up to 72 hours); well color change to purple or red
[1] = test system: S. mitis (CX-8); test: Substance utilization by isolated strains (BioLOG GP2, API 50); type: cell-based, Streptococcus mitis
Experimental: (§1) To analyze substance utilization by the isolated strains (Streptococcus pneumoniae, Streptococcus infantis, and Streptococcus mitis), tests were conducted in the following manner. BioLOG GP2 and API 50 were used in determining the substance utilization, and testing was performed using testing methods provided by Omnilog and Biomeriuse. The culturing temperature and media suitable to corresponding strains were selected, and 5 among cluster colonies incubated for 48 hours were taken and suspended in reagents before use. The inoculation amount was 150 μl. As the suspension, components of kits provided by various manufacturers were used. When the strains are yet to be inoculated, the suspension is in a transparent liquid phase. Inoculated plates and strips were incubated at 37° C. for 48 hours, and then the incubation of up to 72 hours was examined. Wells were in a transparent liquid phase at the time of inoculating, but the colors of the wells changed to purple or red, and the color-changed wells were determined to be positive.

[2] = test system: S. pneumoniae (CX-2); type: cell-based, Streptococcus pneumoniae
Experimental: as §1

[3] = test system: S. infantis (CX-4); test: Substance utilization by isolated strains (BioLOG GP2, API 50); type: cell-based, Streptococcus infantis
Experimental: as §1

Molecule	substance utilization, S. mitis (CX-8) [1]	substance utilization, S. pneumoniae (CX-2) [2]	substance utilization, S. infantis (CX-4) [3]
O=P(O)(O)OC[C@H]1OC(O)(CO)[C@@H](O)[C@@H]1O (stereo partly drawn) [D-Fructose-6-Po4]	+	–	–
[Cl-].[Li+] [Lithium Chloride]	+	–	–
OC[C@H]1O[C@H](O[C@H]2[C@H](O)[C@@H](O)[C@H](O)O[C@@H]2CO)[C@H](O)[C@@H](O)[C@@H]1O [D-maltose]	+	+	+
Pectin	+	+	+
O=C1O[C@H]([C@@H](O)CO)[C@@H](O)[C@@H]1O [L-Galactonic Acid Lactone]	+	–	–
OC[C@H]1O[C@H](OC[C@H]2O[C@H](OC[C@H]3O[C@H](O[C@]4(CO)O[C@H](CO)[C@@H](O)[C@@H]4O)[C@H](O)[C@@H](O)[C@@H]3O)[C@H](O)[C@@H](O)[C@H]2O)[C@H](O)[C@@H](O)[C@H]1O [Stachyose]	+	+	+
D-Turanose	–	+	–
OC[C@H]1O[C@H](OC[C@H]2O[C@H](O[C@]3(CO)O[C@H](CO)[C@@H](O)[C@@H]3O)[C@H](O)[C@@H](O)[C@@H]2O)[C@H](O)[C@@H](O)[C@H]1O [D-Raffinose]	–	+	–
CO[C@H]1/C=C/O[C@@]2(C)Oc3c(C)c([O-])c4c(O)c(cc(O)c4c3C2=O)NC(=O)/C(C)=C\C=C\[C@H](C)[C@H](O)[C@@H](C)[C@@H](O)[C@@H](C)[C@H](OC(C)=O)[C@@H]1C.[Na+] [Rifamycin SV]	+	–	+
COc1cc(-c2ccc(-n3nc(-c4ccccc4)n[n+]3-c3ccccc3)c(OC)c2)ccc1-n1nc(-c2ccccc2)n[n+]1-c1ccccc1.[Cl-].[Cl-] [Tetrazolium Blue]	+	–	+
O=[Te]([O-])[O-].[K+].[K+] [Potassium Tellurite]	+	+	+
OC[C@H]1O[C@H](OCC2O[C@@H](O)[C@H](O)[C@@H](O)[C@@H]2O)[C@H](O)[C@@H](O)[C@H]1O (stereo partly drawn) [D-Melibiose]	–	+	–
[Cl-].[Na+] [1% NaCl, NaCl]	+	+	+
Dextrin	+	+	+
OC[C@H]1O[C@@H](O[C@H]2[C@H](O)[C@@H](O)[C@H](O)O[C@@H]2CO)[C@H](O)[C@@H](O)[C@@H]1O [D-Cellobiose]	+	+	+
D-Salicin	+	–	–
Tween 40	–	+	+
CC(O)C(=O)[O-].[Na+] (stereo not shown) [1% Sodium Lactate, Sodium Lactate]	+	+	+
